Measurements from PubChem BioAssay (NCI).
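Step 1: Grow cells in 96-well plates. Step 2: Expose to compound for 48 hours at 5 concentrations. Step 3: Interpolate endpoints linearly; if unreached, use highest concentration. TGI is the concentration that stops growth completely.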

Tests used:
Assay in all cases: growth of human tumour cells (NCI), 48 h
UACC-62 melanoma = tested on: UACC-62 melanoma
MALME-3M melanoma = tested on: MALME-3M melanoma
SK-OV-3 ovarian = tested on: SK-OV-3 ovarian
COLO 205 colon = tested on: COLO 205 colon
HT29 colon = tested on: HT29 colon
MDA-MB-231 breast = tested on: MDA-MB-231 breast
UO-31 renal = tested on: UO-31 renal
DU-145 prostate = tested on: DU-145 prostate
NCI-H23 lung = tested on: NCI-H23 lung
RXF 393 renal = tested on: RXF 393 renal
TK-10 renal = tested on: TK-10 renal
SW-620 colon = tested on: SW-620 colon
A498 renal = tested on: A498 renal
SR leukemia = tested on: SR leukemia

Compound	TGI (UACC-62 melanoma) [µM]	TGI (MALME-3M melanoma) [µM]	TGI (SK-OV-3 ovarian) [µM]	TGI (COLO 205 colon) [µM]	TGI (HT29 colon) [µM]	TGI (MDA-MB-231 breast) [µM]	TGI (UO-31 renal) [µM]	TGI (DU-145 prostate) [µM]	TGI (NCI-H23 lung) [µM]	TGI (RXF 393 renal) [µM]	TGI (TK-10 renal) [µM]	TGI (SW-620 colon) [µM]	TGI (A498 renal) [µM]	TGI (SR leukemia) [µM]
O=C(Cc1ccccc1F)NC1=C(Cl)C(=O)c2ccccc2C1=O	1.92	5	13.7	6.9	19.5	13.8	8.98	21.8	3.87	0.816	5.29	3.81	33.4	
CC(C)C(=O)N1Cc2cc(Cl)cc(Cl)c2OC(=O)c2ccccc21	42.2	49.3	84.5	> 100	> 100		> 100		> 100		> 100	94.9	97.9	
CCCCCCCCCCCCOP(=O)(O)OP(=O)(O)OCC1OC(n2ccc(N)nc2=O)CC1O (centres undefined)	> 100	> 100	> 100	> 100	> 100	> 100	> 100		> 100	> 100	> 100	> 100	> 100	
N#CC1(C#N)NC(c2ccccc2)C(C#N)(C#N)NC1c1ccccc1 (centres undefined)	> 100	> 100	> 100	> 100	> 100	> 100	> 100	> 100	> 100	> 100	> 100	> 100	> 100	
COc1ccc(C2=NN(c3ccccc3)C[N+](c3ccc(C)cc3)=N2)cc1		> 100		> 100	> 100		> 100		> 100	57.9	> 100	64.4	> 100	> 100
COc1cc(C)c(/C=C2/N=C(c3ccccc3)OC2=O)c([N+](=O)[O-])c1OC	> 100	> 100	> 100	> 100	> 100	> 100		> 100	> 100	> 100	> 100	> 100	> 100	
COC(=O)c1cc(C(=O)OC)c(CC(=O)C(=O)NC2C3CC4CC(C3)CC2C4)nc1CC(=O)C(=O)NC1C2CC3CC(C2)CC1C3 (centres undefined)	> 100	> 100	> 100	> 100	> 100		> 100		> 100	> 100	> 100	> 100	> 100	> 100
COc1cc2c(c(OC)c1OC)-c1ccc(SC)c(=O)cc1C(CC(=O)Oc1cccc([N+](=O)[O-])c1)C2 (centres undefined)		> 100	> 100	2.24	1.99		> 100			> 100	> 100	> 100	0.823	
CC(CCC[C@H](C)CO)[C@H]1[C@@H](O)C(O)C2[C@@H]3C[C@@H](O)C4(O)C[C@@H](O)CC[C@]4(C)C3CC[C@@]21C (some centres undefined)	> 100	> 100	> 100	> 100	> 100		> 100		> 100	> 100	> 100	> 100		> 100
Oc1ccc([C@H]2c3c(O)cc(O)cc3C3c4c(cc(O)cc4[C@@H]2[C@H]2c4cc(O)cc5c4C(c4cc(O)cc(O)c4[C@@H]2c2ccc(O)cc2)[C@@H](c2ccc(O)cc2)O5)O[C@@H]3c2ccc(O)cc2)cc1 (some centres undefined)	> 100	> 100		8.15	> 100	> 100		> 100	> 100	0.428	> 100			50
COc1ccc(/C=C2/CSCC3=C2NC(=S)NC3c2ccc(OC)c(OC)c2OC)c(OC)c1OC (centres undefined)	45	78.6	> 100	76.9	61.1	59.4		> 100	43	52.9	75.5	91.6	39.1	
N#CCc1c(-c2ccccc2)n(S(=O)(=O)c2ccccc2)c2ccccc12	> 100	> 100		> 100	> 100		> 100		> 100		> 100	> 100		> 100
Cc1cc(Cl)nc2nc(Cl)c(N)cc12	5.95	29.3	37.8	4.3		11.5	9.54	18	23.4	> 32	13.6	4.08		> 25.2
Clc1cccc(-c2sc(-c3ccsc3)cc2Cc2ccsc2)c1	> 10	> 10	> 10	> 10	> 10	> 10		> 10	> 10	> 10	> 10	> 10		> 10
O=C(/C=C\c1cccc2ccccc12)c1ccc(F)cc1	27.5	32.1	58.3	35.3	36.6		32.4		45.1		37.4	20.4	> 100	
CC(=O)OC(CC1(C)C(C)CCC23COC(=O)C2=CCCC31)c1ccoc1 (centres undefined)	59.9	55.2	> 100	> 100	> 100		60		54.5	27.7		66.8	> 100	
O=C/C1=C/C2=Cc3ccccc3C=C(/C=C(/C=O)C1)C2	> 100	> 100		> 100	> 100		> 100		> 100	88.6	> 100	> 100	> 100	
S=C(NCCc1ccccn1)N/N=C/c1ccccn1	4.59	> 56.5	> 100	0.452	> 100		> 49.1	> 100		12.2	> 100	> 100	0.571	< 0.0182
O=P1(c2ccccc2)c2ccccc2-c2ccccc21	> 100		> 100	> 100		> 100	> 100	> 100	> 100	> 100	> 100	> 100		
